Assay results from patent US8497371B2, “Pipemidic acid derivative autotaxin inhibitors” (University of Memphis Research Foundation, priority 2009, dated 2013).

Target: ATX (Homo sapiens, UniProt Q13822)
Test: ATX inhibition assay with FS-3 substrate
Format: biochemical
Set-up: conditioned serum-free medium (CCM) from MDA-MB-435 cells as the source of ATX; endogenous in cells; host or cells: MDA-MB-435 cells (about 10x concentrated serum-free conditioned medium)
Conditions: for % Response at 10 μM (FS-3): 10 μM compound, FS-3 hydrolysis normalized to vehicle control (low = strong inhibition), mean ± S.D.; for single dose response comparison by aromatic substituent and position: Table 2, same values as % Response at 10 μM
Method: ATX inhibition was assayed using the substrate FS-3 (Echelon Biosciences, Inc., Salt Lake City, Utah, USA). The FS-3 assay used ˜10 times concentrated conditioned serum-free medium (CCM) from MDA-MB-435 cells as the source of ATX, while CCM comprised one-third of the total volume.
All assays were performed in 96-well plates with data read at 1 minute intervals by a Synergy2 system (BioTek, Winooski, Vt.). […] Results are shown at one hour, at which point all fluorescence and absorbance changes as a function of time were linear. All readings were normalized to vehicle control after subtraction of fluorescence in the absence of CCM. Data are shown as the mean±S.D. of at least three wells. All experiments were repeated at least twice and results are shown.

| % Response at 10 μM (FS-3) | single dose response comparison by aromatic substituent and position | Compound |
| --- | --- | --- |
| 97.6 ± 1.8% | 97.6 ± 1.8 | CCn1cc(C(=O)O)c(=O)c2cnc(N3CCN(C(=S)Nc4ccccc4OC)CC3)nc21 [Compound 21, 2-(4-{[(2-methoxyphenyl)amino]carbonothioyl}-1-piperazinyl)-8-ethyl-5-oxo-5,8-dihydropyrido[2,3-d]pyrimidine-6-carboxylic acid] |
| 77.3 ± 1.6% | 77.3 ± 1.6 | CCn1cc(C(=O)O)c(=O)c2cnc(N3CCN(C(=S)Nc4ccccc4F)CC3)nc21 [Compound 30, 2-(4-{[(2-fluorophenyl)amino]carbonothioyl}-1-piperazinyl)-8-ethyl-5-oxo-5,8-dihydropyrido[2,3-d]pyrimidine-6-carboxylic acid] |
| 83.5 ± 8.2% | 83.5 ± 8.2 | CCn1cc(C(=O)O)c(=O)c2cnc(N3CCN(C(=S)Nc4ccccc4Cl)CC3)nc21 [Compound 17, 2-(4-{[(2-chlorophenyl)amino]carbonothioyl}-1-piperazinyl)-8-ethyl-5-oxo-5,8-dihydropyrido[2,3-d]pyrimidine-6-carboxylic acid] |
| 68.4 ± 1.3% | 68.4 ± 1.3 | CCn1cc(C(=O)O)c(=O)c2cnc(N3CCN(C(=S)Nc4ccccc4I)CC3)nc21 [Compound 26, 2-(4-{[(2-iodophenyl)amino]carbonothioyl}-1-piperazinyl)-8-ethyl-5-oxo-5,8-dihydropyrido[2,3-d]pyrimidine-6-carboxylic acid] |
| 79.7 ± 0.9% | 79.7 ± 0.9 | CCn1cc(C(=O)O)c(=O)c2cnc(N3CCN(C(=S)Nc4ccc(OC)cc4)CC3)nc21 [Compound 24, 2-(4-{[(4-methoxyphenyl)amino]carbonothioyl}-1-piperazinyl)-8-ethyl-5-oxo-5,8-dihydropyrido[2,3-d]pyrimidine-6-carboxylic acid] |

Continued, compound first:

| Compound | % Response at 10 μM (FS-3) | single dose response comparison by aromatic substituent and position |
| --- | --- | --- |
| CCn1cc(C(=O)O)c(=O)c2cnc(N3CCN(C(=S)Nc4ccccc4C(=O)OC)CC3)nc21 [Compound 5, 2-(4-{[(2-methylesterphenyl)amino]carbonothioyl}-1-piperazinyl)-8-ethyl-5-oxo-5,8-dihydropyrido[2,3-d]pyrimidine-6-carboxylic acid] | 51.2 ± 1.3% | – |
| CCn1cc(C(=O)O)c(=O)c2cnc(N3CCN(C(=S)Nc4c(C)cc(C)cc4C)CC3)nc21 [Compound 8, 2-(4-{[(2,4,6-mesitylphenyl)amino]carbonothioyl}-1-piperazinyl)-8-ethyl-5-oxo-5,8-dihydropyrido[2,3-d]pyrimidine-6-carboxylic acid] | 53.5 ± 1.6% | – |
| CCn1cc(C(=O)O)c(=O)c2cnc(N3CCN(C(=S)Nc4ccc(-n5cccn5)cc4)CC3)nc21 [Compound 9, 2-(4-{[(4-pyrazolephenyl)amino]carbonothioyl}-1-piperazinyl)-8-ethyl-5-oxo-5,8-dihydropyrido[2,3-d]pyrimidine-6-carboxylic acid] | 68.6 ± 1.1% | – |
| 2-(4-{[(4-dimethylaminonapthylphenyl)amino]carbonothioyl}-1-piperazinyl)-8-ethyl-5-oxo-5,8-dihydropyrido[2,3-d]pyrimidine-6-carboxylic acid [Compound 2] | 59.9 ± 1.5% | – |
| CCn1cc(C(=O)Oc2ccccc2)c(=O)c2cnc(N3CCN(C(=S)Nc4ccccc4)CC3)nc21 [Compound 16, 2-(4-{[(phenyl)amino]carbonothioyl}-1-piperazinyl)-8-ethyl-5-oxo-5,8-dihydropyrido[2,3-d]pyrimidine-6-carboxylic acid phenyl] | 56.4 ± 1.0% | – |
| CCn1cc(C(=O)O)c(=O)c2cnc(N3CCN(C(=S)Nc4ccc(C(=O)O)cc4)CC3)nc21 [Compound 4, 2-(4-{[(4-carboxylphenyl)amino]carbonothioyl}-1-piperazinyl)-8-ethyl-5-oxo-5,8-dihydropyrido[2,3-d]pyrimidine-6-carboxylic acid] | 72.7 ± 2.2% | – |
| CCn1cc(C(=O)O)c(=O)c2cnc(N3CCN(C(=S)Nc4cccc(Cl)c4Cl)CC3)nc21 [Compound 15, 2-(4-{[(2,3-dichlorophenyl)amino]carbonothioyl}-1-piperazinyl)-8-ethyl-5-oxo-5,8-dihydropyrido[2,3-d]pyrimidine-6-carboxylic acid] | 72.3 ± 0.4% | – |
| CCn1cc(C(=O)O)c(=O)c2cnc(N3CCN(C(=S)Nc4ccccc4C(F)(F)F)CC3)nc21 [Compound 12, 2-(4-{[(2-trifluoromethylphenyl)amino]carbonothioyl}-1-piperazinyl)-8-ethyl-5-oxo-5,8-dihydropyrido[2,3-d]pyrimidine-6-carboxylic acid] | 100.8 ± 1.9% | 100.8 ± 1.9 |
| CCn1cc(C(=O)O)c(=O)c2cnc(N3CCN(C(=S)Nc4ccccc4-c4cccc5nsnc45)CC3)nc21 [Compound 10, 2-(4-{[(2-benzothiadiazolphenyl)amino]carbonothioyl}-1-piperazinyl)-8-ethyl-5-oxo-5,8-dihydropyrido[2,3-d]pyrimidine-6-carboxylic acid] | 63.2 ± 2.8% | – |
| CCn1cc(C(=O)O)c(=O)c2cnc(N3CCN(C(=S)Nc4ccc(S(=O)(=O)N5CCOCC5)cc4)CC3)nc21 [Compound 6, 2-(4-{[(4-morpholinosulfonylphenyl)amino]carbonothioyl}-1-piperazinyl)-8-ethyl-5-oxo-5,8-dihydropyrido[2,3-d]pyrimidine-6-carboxylic acid] | 64.1 ± 2.8% | – |
